Measurements as given in patent US7514438B2, “Melanin concentrating hormone receptor antagonist” (Amgen, Inc., priority 2003, dated 2009).

What was measured:
[1] = molecular target: T1, human MCH 1 receptor (hMCH1R) (Homo sapiens, UniProt Q99705); test: 125I-MCH ligand binding assay, hMCH; details: HEK 293 membranes, 0.2 nM 125I native-MCH; 100 μM or less list; read-out: IC50 in the hMCH binding assay
T1 construct: expressed in transfected cells; host or cells: HEK 293 (membranes)
Method: (§1) Human embryonic kidney cells (293 total) expressing either human, rat, or mouse MCH receptor were harvested from 150 mm culture dishes using PBS. Spinning at 1500 rpm for 2 minutes initially pelleted cells. The resulting pellet was then homogenized in 15 mL ice cold sucrose buffer (25 mM HEPES, 0.3 M sucrose, pH 7.4) with a motorized, glass fitted, Teflon® homogenizer. The homogenate was centrifuged at 48,000×g at 4° C. for 10 minutes, resuspended in 15 mL assay buffer (25 mM HEPES, 10 mM mgCl2, 0.2% BSA, 0.1 mg/mL STI, 0.1 mg/mL Pefabloc®, 1 μM Phosphoramidon, pH 7.4) with a Tissue-Tearor® (Biospec Products) and centrifuged again at 48,000×g for 10 minutes. The pellet was homogenized for a third time in 15 mL assay buffer using the Tissue-Tearor® and again centrifuged at 48,000×g for 10 minutes. The resulting pellet was resuspended in assay buffer at a wet weight concentration of 10-20 mg/mL.
(§2) Binding assays were determined as described below using mouse, rat or human MCH 1 receptors (mMCH1R, rMCH1R, and hMCH1R, respectively) expressed in HEK 293; IC50 values were calculated.
(§3) Binding assays were performed in 96-well U-bottom plates. Membranes (100 μg tissue) were incubated at 30° C. for 90 minutes in assay buffer with various peptides in the presence of 0.2 nM ^125I native-MCH (Perkin-Elmer Life Sciences, Boston, Mass.) in 100 μL total volume. Non-specific binding was assessed in the presence of 1 μM cold native-MCH. The reaction was terminated by rapid filtration through Unfilter-96 GF/C glass fiber filter plates (FilterMate® 196 Harvester, Packard Instrument Co., Meriden, Conn.) pre-soaked in PBS/0.5% BSA, followed by three washes with 300 μL ice-cold water. Bound radioactivity was determined using a TopCount® microplate scintillation and luminescence counter (Packard Instrument Co., Meriden, Conn.). Nonlinear regression analyses of drug concentration curves were performed using GraphPad Prism® (GraphPad Software, Inc., San Diego, Calif.).

[2] = molecular target: T2, rat MCH 1 receptor (rMCH1R) (Rattus norvegicus, UniProt P97639); test: 125I-MCH ligand binding assay, rMCH; details: HEK 293 membranes, 0.2 nM 125I native-MCH; 100 μM or less list; read-out: IC50 in the rMCH binding assay
T2 construct: expressed in transfected cells; host or cells: HEK 293 (membranes)
T2 sequence (P97639 whole entry): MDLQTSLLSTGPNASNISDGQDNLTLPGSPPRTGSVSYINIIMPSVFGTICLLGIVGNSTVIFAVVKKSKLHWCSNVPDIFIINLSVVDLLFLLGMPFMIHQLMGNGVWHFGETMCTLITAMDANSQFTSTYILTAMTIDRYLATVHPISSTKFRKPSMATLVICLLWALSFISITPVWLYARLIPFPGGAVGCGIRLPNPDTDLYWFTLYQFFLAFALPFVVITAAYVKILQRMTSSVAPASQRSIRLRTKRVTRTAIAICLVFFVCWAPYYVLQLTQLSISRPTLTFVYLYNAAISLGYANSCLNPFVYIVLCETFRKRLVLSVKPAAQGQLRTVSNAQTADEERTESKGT
Method: as §1, §2, §3

T1 sequence (Q99705 whole entry): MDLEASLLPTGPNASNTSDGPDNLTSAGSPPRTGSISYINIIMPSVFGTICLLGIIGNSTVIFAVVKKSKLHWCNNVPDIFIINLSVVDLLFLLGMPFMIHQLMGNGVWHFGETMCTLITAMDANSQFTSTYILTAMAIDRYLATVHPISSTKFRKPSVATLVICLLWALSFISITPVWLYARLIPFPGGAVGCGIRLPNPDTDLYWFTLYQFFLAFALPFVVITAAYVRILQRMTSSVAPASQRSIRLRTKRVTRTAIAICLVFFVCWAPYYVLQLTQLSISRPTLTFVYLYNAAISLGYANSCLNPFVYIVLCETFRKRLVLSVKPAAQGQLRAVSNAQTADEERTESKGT

| SMILES | IC50 [1] [µM] | IC50 [2] [µM] |
| --- | --- | --- |
| CC(C)(C)n1nnnc1[C@H](c1ccccc1)N1CCN(C/C=C/c2ccccc2)CC1 (racemic) [Compound 14, 1-[(1-tert-butyl-1H-tetrazol-s-yl)phenylmethyl]-4-(3-phenylallyl)piperazine] | ≤ 100 | ≤ 100 |
| C(=C\c1ccccc1)/CN1CCN([C@@H](c2ccccc2)c2nnnn2Cc2ccccc2)CC1 (racemic) [Compound 15, 1-[(1-benzyl-1H-tetrazol-5-yl)phenylmethyl]-4-(3-phenylallyl)piperazine] | ≤ 100 | ≤ 100 |
| CCCCn1nnnc1[C@H](c1ccccc1)N1CCN(C/C=C/c2ccccc2)CC1 (racemic) [Compound 17, 1-[(1-butyl-1H-tetrazol-5-yl)phenylmethyl]-4-(3-phenylallyl)piperazine] | ≤ 100 | – |
| CC(C)n1nnnc1[C@H](c1ccccc1)N1CCN(C/C=C/c2ccccc2)CC1 (racemic) [Compound 19, 1-[(1-isopropyl-1H-tetrazol-5-yl)phenylmethyl]-4-(3-phenylallyl)piperazine] | ≤ 100 | ≤ 100 |
| CCOC(=O)Cn1nnnc1[C@H](c1ccccc1)N1CCN(C/C=C/c2ccccc2)CC1 (racemic) [Compound 21] | ≤ 100 | ≤ 100 |
| CC(C)(C)CC(C)(C)n1nnnc1[C@H](c1ccccc1)N1CCN(C/C=C/c2ccccc2)CC1 (racemic) [Compound 22, 1-(3-phenylallyl)-4-{phenyl-[1-(1,1,3,3-tetramethylbutyl)-1H-tetrazol-5-yl]methyl}piperazine] | ≤ 100 | ≤ 100 |
| C(=C\c1ccccc1)/CN1CCN([C@@H](c2ccccc2)c2nnnn2CCc2c[nH]c3ccccc23)CC1 (racemic) [Compound 29, 3-[2-(5-{phenyl-[4-(3-phenylallyl)piperazin-1-yl]methyl}tetrazol-1-yl)ethyl]-1H-indole] | ≤ 100 | ≤ 100 |
| Clc1ccc(Cn2nnnc2[C@H](c2ccccc2)N2CCN(C/C=C/c3ccccc3)CC2)cc1Cl (racemic) [Compound 30, 1-{[1-(3,4-dichlorobenzyl)-1H-tetrazol-5-yl]phenylmethyl}-4-(3-phenylallyl)piperazine] | ≤ 100 | ≤ 100 |
| C(=C\c1ccccc1)/CN1CCN([C@@H](c2ccccc2)c2nnnn2CCc2ccccc2)CC1 (racemic) [Compound 35, 1-[(1-phenethyl-1H-tetrazol-5-yl)phenylmethyl]-4-(3-phenylallyl) piperazine] | ≤ 100 | ≤ 100 |
| O=C1CCCN1CCCn1nnnc1[C@H](c1ccccc1)N1CCN(C/C=C/c2ccccc2)CC1 (racemic) [Compound 36, 1-[3-(5-{phenyl-[4-(3-phenylallyl)piperazin-1-yl]methyl}tetrazol-1-yl)propyl]pyrrolidin-2-one] | ≤ 100 | ≤ 100 |
| C(=C\c1ccccc1)/CN1CCN([C@@H](c2ccccc2)c2nnnn2-c2cccc3c2CCCC3)CC1 (racemic) [Compound 38, 1-(3-phenylallyl)-4-{phenyl-[1-(5,6,7,8-tetrahydronaphthalen-1-yl)-1H-tetrazol-5-yl]methyl}piperazine] | ≤ 100 | ≤ 100 |
| Clc1ccc(CCn2nnnc2[C@H](c2ccccc2)N2CCN(C/C=C/c3ccccc3)CC2)cc1 (racemic) [Compound 39, 1-({1-[2-(4-chlorophenyl)ethyl]-1H-tetrazol-5-yl}phenylmethyl)-4-(3-phenylallyl)piperazine] | ≤ 100 | ≤ 100 |
| C(=C\c1ccccc1)/CN1CCN([C@@H](c2ccccc2)c2nnnn2CCCN2CCOCC2)CC1 (racemic) [Compound 42] | ≤ 100 | – |
| Cc1cccc(C)c1-n1nnnc1[C@H](c1cccc2ccccc12)N1CCN(C/C=C/c2ccccc2)CC1 (racemic) [Compound 46, 1-{[1-(2,6-dimethyiphenyl)-1H-tetrazol-5-yl]naphthalen-1-ylmethyl}-4-(3-phenylallyl)piperazine] | ≤ 100 | ≤ 100 |
| Cc1cccc(C)c1-n1nnnc1[C@H](c1ccc(/C=C/c2ccccc2)cc1)N1CCN(C/C=C/c2ccccc2)CC1 (racemic) [Compound 52, 1-[[1-(2,6-dimethylphenyl)-1H-tetrazol-5-yl]-(4-styrylphenyl)methyl]-4-(3-phenylallyl)piperazirie] | ≤ 100 | ≤ 100 |
| Cc1cccc(C)c1-n1nnnc1[C@H](c1ccc(F)cc1)N1CCN(C/C=C/c2ccccc2)CC1 (racemic) [Compound 58, 1-[[1-(2,6-dimethylphenyl)-1H-tetrazol-5-yl]-(4-fluorophenyl)methyl]-4-(3-phenylallyl)piperazine] | ≤ 100 | ≤ 100 |
| Cc1cccc(C)c1-n1nnnc1[C@H](c1ccc(C(F)(F)F)cc1)N1CCN(C/C=C/c2ccccc2)CC1 (racemic) [Compound 63, 1-[[1-(2,6-dimethylphenyl)-1H-tetrazol-5-yl]-(4-trifluoromethylphenyl)methyl]-4-(3-phenylallyl)piperazine] | ≤ 100 | ≤ 100 |
| Cc1cccc(C)c1-n1nnnc1[C@H](c1ccccc1OCc1ccccc1)N1CCN(C/C=C/c2ccccc2)CC1 (racemic) [Compound 66, 1-{(2-benzyloxyphenyl)-[1-(2,6-dimethylphenyl)-1H-tetrazol-5-yl]methyl}-4-(3-phenylallyl)piperazine] | ≤ 100 | – |
| COc1ccccc1[C@@H](c1nnnn1-c1c(C)cccc1C)N1CCN(C/C=C/c2ccccc2)CC1 (racemic) [Compound 67, 1-[[1-(2,6-dimethylphenyl)-1H-tetrazol-5-yl]-(2-methoxyphenyl)methyl]-4-(3-phenylallyl)piperazine] | ≤ 100 | – |
| Cc1cccc(C)c1-n1nnnc1[C@H](c1ccc(-c2cccc(C(F)(F)F)c2)o1)N1CCN(C/C=C/c2ccccc2)CC1 (racemic) [Compound 68, 1-{[1-(2,6-dimethylphenyl)-1H-tetrazol-5-yl]-[5-(3-trifluoromethylphenyl)furan-2-yl]methyl}-4-(3-phenylallyl)piperazine] | ≤ 100 | ≤ 100 |
| Cc1cccc(C)c1-n1nnnc1[C@H](COCc1ccccc1)N1CCN(C/C=C/c2ccccc2)CC1 (racemic) [Compound 69, 1-{2-benzyloxy-1-[1-(2,6-dimethylphenyl)-1H-tetrazol-5-yl]ethyl}-4-(3-phenylallyl)piperazine] | ≤ 100 | ≤ 100 |
| Cc1cccc([C@@H](c2nnnn2-c2c(C)cccc2C)N2CCN(C/C=C/c3ccccc3)CC2)n1 (racemic) [Compound 71, 1-[[1-(2,6-dimethylphenyl)-1H-tetrazol-5-yl]-(6-methylpyridin-2-yl)methyl]-4-(3-phenylallyl)piperazine] | ≤ 100 | ≤ 100 |
| Cc1cccc(C)c1-n1nnnc1[C@H](c1cccc(Oc2ccc(Cl)c(Cl)c2)c1)N1CCN(C/C=C/c2ccccc2)CC1 (racemic) [Compound 72, 1-{[3-(3,4-dichlorophenoxy)phenyl]-[1-(2,6-dimethylphenyl)-1H-tetrazol-5-yl]methyl}-4-(3-phenylallyl) piperazine] | ≤ 100 | ≤ 100 |
| Cc1ccc(Oc2cccc([C@@H](c3nnnn3-c3c(C)cccc3C)N3CCN(C/C=C/c4ccccc4)CC3)c2)cc1 (racemic) [Compound 73, 1-[[1-(2,6-dimethylphenyl)-1H-tetrazol-5-yl]-(3-p-tolyloxyphenyl)methyl]-4-(3-phenylallyl)piperazine] | ≤ 100 | ≤ 100 |
| Cc1cccc(C)c1-n1nnnc1[C@H](c1cccnc1)N1CCN(C/C=C/c2ccccc2)CC1 (racemic) [Compound 74, 1-{[1-(2,6-dimethylphenyl)-1H-tetrazol-5-yl]pyridin-3-ylmethyl}-4-(3-phenylallyl)piperazine] | ≤ 100 | ≤ 100 |
| Cc1cccc(C)c1-n1nnnc1[C@H](COCCc1ccccc1)N1CCN(C/C=C/c2ccccc2)CC1 (racemic) [Compound 85, 1-{1-[1-(2,6-dimethylphenyl)-1H-tetrazol-5-yl]-2-phenethyloxyethyl}-4-(3-phenylallyl)piperazine] | ≤ 100 | – |
| Cc1cccc(C)c1-n1nnnc1C1(N2CCN(C/C=C/c3ccccc3)CC2)CCN(Cc2ccccc2)CC1 [Compound 91, 1-{1-benzyl-4-[1-(2,6-dimethylphenyl)-1H-tetrazol-5-yl]piperidin-4-yl}-4-(3-phenylallyl)piperazine] | ≤ 100 | – |
